According to publication PMC7435868, “Structure-Based Virtual Screening, Synthesis and Biological Evaluation of Potential FAK-FAT Domain Inhibitors for Treatment of Metastatic Cancer” (Molecules, 2020):
Structures can show the parent of a compound that is named as a salt.

Legend:
MDA-MB-231 = assay: Cell viability assay (CellTiter Glo), MDA-MB-231; format: cell-based; conditions: Homo sapiens, 72 h incubation, mean of independent triplicate experiments, read-out: In vitro anti-proliferative activity IC50, MDA-MB-231 ER- PR- HER-
Description: (§1) The antiproliferative activity of compound I as well as its newly synthesised analogues (5a–i) was evaluated in vitro against the three human breast cancer cell lines MDA-MB-231 (TNBC), T47D (ER^+, HER^−), and BT474 (ER^+, HER^+) as well as a human pancreatic cancer cell line MIAPaCa2. The seeding of the corresponding cell lines started one day before incubation, which lasted for 72 h with the different concentrations of the tested compounds. CellTiter Glo reagent (25 μL) was added to the cell plate. The luminescence was analysed after 10 min using a PerkinElmer Envision instrument. The test compounds were used at ten different triplicate concentrations in half log increments up to 100 μM.

T47D = assay: Cell viability assay (CellTiter Glo), T47D; format: cell-based, human; conditions: Homo sapiens, T47D, 72 h, 72 h incubation, mean of independent triplicate experiments, read-out: In vitro anti-proliferative activity IC50, T47D ER+ PR+/- HER-
Description: as §1

BT474 = assay: Cell viability assay (CellTiter Glo), BT474; format: cell-based, human; conditions: Homo sapiens, BT-474, 72 h, 72 h incubation, mean of independent triplicate experiments, read-out: In vitro anti-proliferative activity IC50, BT474 ER+ PR+/- HER+
Description: as §1

MIAPaCa2 = assay: Cell viability assay (CellTiter Glo), MIAPaCa2; format: cell-based; conditions: Homo sapiens, MIA PaCa-2, 72 h incubation, mean of independent triplicate experiments, read-out: In vitro anti-proliferative activity IC50, MIAPaCa2
Description: as §1

[1] = Microsomal metabolic stability; conditions: for Compound Remaining (% of 0 min), 0 min / Compound Remaining (% of 0 min), 5 min / Compound Remaining (% of 0 min), 15 min / Compound Remaining (% of 0 min), 30 min / Compound Remaining (% of 0 min), 45 min / Compound Remaining (% of 0 min), Control: human liver microsomes; for Compound Remaining (% of 0 min), Control: minus NADPH control; for Compound Remaining (% of 0 min), 45 min / Compound Remaining (% of 0 min), Control: 45 min; for half-life at 3 μM / microsomal CLint at 3 μM: human, pooled liver microsomes, pH 7.4
Description: Half-life (t1/2) values were measured at five time points.
Intrinsic clearance values (CLint) with standard error and t1⁄2 values were measured.
The final incubation volume was 50 μL. A minus cofactor control incubation was included for each compound tested where 0.1 M phosphate buffer pH 7.4 was added instead of NADPH (minus NADPH). Two control compounds were included with each species. All incubations were performed singularly for each test compound.
The reactions were stopped by transferring 20 μL of incubate to 60 μL methanol at the appropriate time points. The termination plates were centrifuged at 2500 rpm for 20 min at 4 °C to precipitate the protein.
Following protein precipitation, the sample supernatants were combined in cassettes of up to 4 compounds, the internal standard was added, and samples were analysed using Cyprotex generic LC-MS/MS conditions.
From a plot of ln peak area ratio (compound peak area/internal standard peak area) against time, the gradient of the line was determined.

[2] = Turbidimetric aqueous solubility; format: physicochemical; conditions: 37 °C, 2 h; for Estimated Precipitation Range, Calculated Mid-Range / Estimated Precipitation Range, Lower Bound / Estimated Precipitation Range, Upper Bound: buffered aqueous solution (PBS pH 7.4, 1% DMSO)
Description: Both the estimated precipitation range (lower and upper bound) and a mid-range value were measured. Nicardipine and pyrene were used as control compounds.
The test compound was diluted in buffer to give a range of concentrations (1, 3, 10, 30, and 100 μM; final DMSO concentration 1%) and incubated at 37 °C for 2 hr.
The test compound (10 mM in DMSO) was serially diluted to give solutions of 0.1, 0.3, 1, and 3 mM in DMSO. Each test compound concentration was then further diluted 1 to 100 in buffer (typically 0.01 M phosphate buffered saline pH 7.4) so that the final DMSO concentration was 1%, and the final test compound concentrations were 1, 3, 10, 30, and 100 μM. The experiment was performed at 37 °C and each concentration was incubated in 7 replicate wells. The plates were incubated for 2 h at 37 °C before the absorbance was measured at 620 nm. Nicardipine and pyrene were included as control compounds. The solubility of nicardipine is pH dependent whereas the solubility of pyrene is pH independent.
An estimated precipitation range (lower and upper bound) and a calculated mid-range value were returned, along with any relevant comments, in the form of an Excel spreadsheet.

hERG potassium channel = hERG potassium channel (Homo sapiens, UniProt Q12809); assay: hERG channel inhibition (IonWorks automated patch clamp, CHO-hERG cells)
hERG potassium channel, sequence (Q12809 whole entry): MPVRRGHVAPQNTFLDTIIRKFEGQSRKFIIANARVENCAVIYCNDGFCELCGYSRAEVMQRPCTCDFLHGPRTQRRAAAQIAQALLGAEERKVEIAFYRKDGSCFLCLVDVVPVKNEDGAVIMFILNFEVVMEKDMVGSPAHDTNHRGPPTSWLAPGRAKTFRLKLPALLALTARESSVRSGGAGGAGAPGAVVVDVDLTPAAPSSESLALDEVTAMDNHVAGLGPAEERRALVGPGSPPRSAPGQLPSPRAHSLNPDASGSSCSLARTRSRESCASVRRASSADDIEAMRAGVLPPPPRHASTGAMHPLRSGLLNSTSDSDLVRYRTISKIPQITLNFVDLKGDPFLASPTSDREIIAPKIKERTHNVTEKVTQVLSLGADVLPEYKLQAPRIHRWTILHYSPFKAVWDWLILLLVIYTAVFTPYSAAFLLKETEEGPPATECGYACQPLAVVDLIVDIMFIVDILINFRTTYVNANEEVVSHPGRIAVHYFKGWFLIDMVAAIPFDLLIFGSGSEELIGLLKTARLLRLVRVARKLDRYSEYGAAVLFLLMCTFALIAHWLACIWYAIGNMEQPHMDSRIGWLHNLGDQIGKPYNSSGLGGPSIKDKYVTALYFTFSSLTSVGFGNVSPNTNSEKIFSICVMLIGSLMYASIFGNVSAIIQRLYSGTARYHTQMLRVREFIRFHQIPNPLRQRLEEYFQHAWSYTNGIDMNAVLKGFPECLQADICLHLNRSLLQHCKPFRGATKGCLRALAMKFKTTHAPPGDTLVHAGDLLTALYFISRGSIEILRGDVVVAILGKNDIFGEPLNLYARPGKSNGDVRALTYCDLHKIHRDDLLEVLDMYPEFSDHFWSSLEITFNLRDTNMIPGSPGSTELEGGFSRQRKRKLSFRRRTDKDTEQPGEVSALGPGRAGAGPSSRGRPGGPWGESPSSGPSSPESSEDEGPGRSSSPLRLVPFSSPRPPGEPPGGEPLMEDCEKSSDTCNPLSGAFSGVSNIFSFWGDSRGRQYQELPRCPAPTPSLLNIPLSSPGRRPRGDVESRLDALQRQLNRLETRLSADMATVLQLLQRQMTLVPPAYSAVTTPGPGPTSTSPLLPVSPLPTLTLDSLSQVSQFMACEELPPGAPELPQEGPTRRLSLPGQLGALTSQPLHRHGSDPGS
Description: Mammalian cells expressing the hERG potassium channel were dispensed into 384-well planar arrays and hERG tail-currents measured by whole-cell voltage-clamping. A range of concentrations of the test compound was then added to the cells and a second recording of the hERG current was made. […] IC50 is delivered, standard error (SE IC50), and n (number of data points used to calculate IC50) for the test compound. The experiments were performed on an Ion Works TM automated patch clamp instrument (Molecular Devices LLC (San Jose, California, United States)), which simultaneously performs electrophysiology measurements for 48 single cells in a specialised 384-well plate (PatchPlateTM(manufacturer, city, state if USA or Canada, country)). All cell suspensions, buffers, and test compound solutions were at room temperature during the experiment.
The cells used were Chinese hamster ovary (CHO) cells stably transfected with hERG (cell-line obtained from Cytomyx, UK). A single-cell suspension was prepared in extracellular solution (Dulbecco’s phosphate buffered saline with calcium and magnesium pH 7.2) and aliquots added automatically to each well of a Patch Plate TM. The cells were then positioned over a small hole at the bottom of each well by applying a vacuum beneath the plate to form an electrical seal. The vacuum was applied through a single compartment common to all wells which was filled with intracellular solution (buffered to pH 7.2 with HEPES). The resistance of each seal was measured via a common ground-electrode in the intracellular compartment and individual electrodes placed into each of the upper wells.
Electrical access to the cell was then achieved by circulating a perforating agent, amphotericin B, underneath the PatchPlateTM. The pre-compound hERG current was then measured. An electrode was positioned in the extracellular compartment and a holding potential of −80 mV applied for 15 s. The hERG channels were then activated by applying a depolarising step to +40 mV for 5 s and then clamped at −50 mV for 4 s to elicit the hERG tail current, before returning to −80 mV for 0.3 s.
The Ion Works TM instrument automatically adds test compound dilutions to the upper wells of the PatchPlateTM. The test compound was left in contact with the cells for 300 s before recording currents using the same voltage-step protocol as in the pre-compound scan.
Each concentration was tested in 4 replicate wells on the PatchPlateTM (maximum of 24 data points). Filters were applied to ensure only acceptable cells were used to assess hERG inhibition.
For each replicate, the hERG response was calculated using the following equation:% hERG response = [Post-compound current (nA)/Pre-compound current (nA)] × 100(5)

[3] = system: MDA-MB-231, T47D, BT474, and MIAPaCa2; assay: Cell viability assay, statements across the four cell lines; format: cell-based, human; conditions: three human breast and one pancreatic cancer cell line, up to 100 μM
Description: as §1

[4] = design: method as in PMID 19610651, PMID 24780592; conditions: cited from earlier work

Cl.NCC(c1ccc(Cl)cc1)c1ccc(OC(F)(F)F)cc1 (stereo not shown) [5g, 2-(4-chlorophenyl)-2-(4-trifluoromethoxyphenyl)ethan-1-aminium chloride]
IC50 (MDA-MB-231): 16.9 µM | IC50 (T47D): 15.3 µM | IC50 (BT474): 15.5 µM | IC50 (MIAPaCa2): 45.3 µM | Compound Remaining (% of 0 min), 0 min [1]: 100 % of 0 min | Compound Remaining (% of 0 min), 5 min [1]: 99.0 % of 0 min | Compound Remaining (% of 0 min), 15 min [1]: 96.2 % of 0 min | Compound Remaining (% of 0 min), 30 min [1]: 86.8 % of 0 min | Compound Remaining (% of 0 min), 45 min [1]: 72.8 % of 0 min | Compound Remaining (% of 0 min), Control [1]: 86.6 % of 0 min | half-life at 3 μM [1]: 1.67 h | microsomal CLint at 3 μM [1]: 13.9 µL/min/mg

Cl.NCC(c1ccc(OC(F)(F)F)cc1)c1ccc(OC(F)(F)F)cc1 [5h, 2,2-Bis(4-trifluoromethoxyphenyl)ethan-1-aminium chloride]
IC50 (MDA-MB-231): 12.8 µM | IC50 (T47D): 13.2 µM | IC50 (BT474): 13.2 µM | IC50 (MIAPaCa2): 39.9 µM | Estimated Precipitation Range, Calculated Mid-Range [2]: 65 µM | Estimated Precipitation Range, Lower Bound [2]: 30 µM | Estimated Precipitation Range, Upper Bound [2]: 100 µM | Aqueous solubility (in words) ([2]; turbidimetric): moderate solubility | Compound Remaining (% of 0 min), 0 min [1]: 100 % of 0 min | Compound Remaining (% of 0 min), 5 min [1]: 102 % of 0 min | Compound Remaining (% of 0 min), 15 min [1]: 108 % of 0 min | Compound Remaining (% of 0 min), 30 min [1]: 100 % of 0 min | Compound Remaining (% of 0 min), 45 min [1]: 95.8 % of 0 min | Compound Remaining (% of 0 min), Control [1]: 97.8 % of 0 min | half-life at 3 μM [1]: 9.82 h | microsomal CLint at 3 μM [1]: 2.35 µL/min/mg

COc1ccc(C(CN)c2ccc(OC)cc2)cc1 [5i, 2,2-Bis(4-methoxyphenyl)ethan-1-aminium chloride]
IC50 (MDA-MB-231): 46.2 µM | IC50 (T47D): 43.9 µM | IC50 (BT474): 44.5 µM | IC50 (MIAPaCa2): 49 µM | IC50 (hERG potassium channel): 6.01 µM

CN(C)CCN(Cc1ccc(Cl)cc1)c1ccccn1 [C4, chloropyramine hydrochloride, reference compound]
IC50 (MDA-MB-231): 99 µM | IC50 (T47D): > 100 µM | IC50 (BT474): > 100 µM | IC50 (MIAPaCa2): > 100 µM | Anti-proliferative activity (in words) across the four cell lines [3]: did not show any significant anti-proliferative activity up to a concentration of 100 μM | Concentration at which anticancer activity is displayed [4]: > 100 µM

COC(=O)C1=C(C)NC(C)=C(C(=O)OCCN(C)Cc2ccccc2)C1c1cccc([N+](=O)[O-])c1 (stereo not shown) [nicardipine, reference compound]
Estimated Precipitation Range, Upper Bound [2]: 30 µM

c1cc2ccc3cccc4ccc(c1)c2c34 [pyrene, reference compound]
Estimated Precipitation Range, Calculated Mid-Range [2]: 6.5 µM | Estimated Precipitation Range, Lower Bound [2]: 3 µM | Estimated Precipitation Range, Upper Bound [2]: 10 µM
